From patent US12169196B2, “Human iPSC-based drug testing platform for muscular dystrophy” (The Johns Hopkins University, priority 2019, dated 2024)
Entries after “also recorded” stand apart in the source; their conditions may differ.

Tests used:
[1] = tested on: mdx^5cv mice; assay: Tibialis anterior muscle strength and rate of fatigue; format: in vivo, mouse
Source text: (§1) All animal experiments were approved by the Institutional Animal Care and Use Committee (IACUC) of The Johns Hopkins University, School of Medicine (Baltimore, Maryland). Mdx^5cv (B6Ros.Cg-Dmdmdx-5Cv/J) were obtained from The Jackson Laboratory. Mice were maintained in a 12-h light cycle (7 am-7 pm) with ad libitum access to food and water. […] Ginsenoside Rd was suspended in saline containing 10% 1,3-propanediol as vector.
Tibialis anterior muscle strength (maximal isometric force) and rate of fatigue were measured. Briefly, animals were anaesthetized with 3-5% isoflurane and placed in a supine position. The tibia was stabilized and the distal tendon of the tibialis anterior (TA) was surgically released and attached to the load cell (FT03, Grass Instruments, Warwick, RI). The load cell was adjusted via a micromanipulator to stretch the muscle to resting length (aka, optimal length). TA contraction was then triggered via subcutaneous stimulation of the fibular nerve, and the resulting force generated was sampled at 1 kHz and analyzed with acquisition software (PolyVIEW™ 16, Grass Instruments). After contractile function experiments, animals were euthanized and the TAs were harvested and weighed. […] To provide an index of fatigue, muscle tension was measured after 5 minutes of tetanic stimulation (200 ms train duration) repeated at 1 Hz and expressed as a percentage of initial tension.

[2] = tested on: mdx^5cv mice; assay: Treadmill running; format: in vivo, mouse; conditions: 1344 h
Description: as §1
Forelimb grip strength was measured as maximal tensile force using a computerized force transducer (Grip Strength Meter, Bioseb). Five measurements were performed for each animal and the maximum value was used for the analysis. Treadmill testing was performed using a motor-driven treadmill (Columbus Instruments). Prior to the test day, acclimatization was performed 5 times over a period of 2 weeks at 10 m/min. On the test day, mice ran at 5 m/min for 5 min (warm up) and the speed was increased 1 m/min every min up to 10 m/min. Mice were considered exhausted when they sat for more than 10 sec on a shock pad for the third time.

[3] = tested on: p21 (WAF1/CIP1); assay: Western blot of p21 protein expression in D2 myoblasts; format: cell-based, human; conditions: ginsenoside 25 μM or FLT3 recombinant protein 100 ng/ml, 30 min
Description: FIG. 3A: Top pathways selected by ingenuity pathway analysis of microarray result from ginsenoside Rd and fenofibrate-treated D2 myoblasts for 24 hours. Absolute z-score values above 2 were highlighted in red. FIGS. 3B and 3D: Quantification of western blot of p21 protein expression in D2 myoblasts treated with ginsenoside (25 μM), FLT3 recombinant protein (100 ng/ml) or DMSO for 30 min, n=4, *P≤0.05. FIG. 3C, 3E: Quantification of western blot of phosphorylated ERK 1/2 (p-ERK 1/2) in D2 myoblasts treated with ginsenoside (25 μM), FLT3 recombinant protein (100 ng/ml) or DMSO for 30 min, n=4, *P≤0.05. […] (Data=Mean±SEM, FIGS. 3D, 3E: one-way ANOVA with Dunnett's multiple comparison test with DMSO negative control, FIG. 3G: one-way ANOVA with Tukey's multiple comparison test).
Whole-cell extracts were prepared by lysing cells on plate with RIPA buffer (CST) supplemented by proteinase inhibitor and phosphatase inhibitor cocktail (CST). Western blotting was performed according to the standard protocol using precast NuPAGE (4-12%) Bis-Tris gel (Invitrogen). Protein transfer was performed with the Bio-Rad turbo or wet/tank blotting system. […] Membranes were then incubated with a secondary IRDye 800 conjugated anti-rabbit IgG, or Alexa Fluor 680 anti-mouse IgG and proteins were visualized and quantified using the LI-COR Odyssey Infrared Imaging System (LI-COR). […]

[4] = tested on: ERK1/2; assay: Western blot of phosphorylated ERK 1/2 in D2 myoblasts; format: cell-based, human; conditions: ginsenoside 25 μM or FLT3 recombinant protein 100 ng/ml, 30 min
Description: Whole-cell extracts were prepared by lysing cells on plate with RIPA buffer (CST) supplemented by proteinase inhibitor and phosphatase inhibitor cocktail (CST). […] Protein transfer was performed with the Bio-Rad turbo or wet/tank blotting system. Nitrocellulose membranes were incubated with primary antibodies overnight at 4° C. Membranes were then incubated with a secondary IRDye 800 conjugated anti-rabbit IgG, or Alexa Fluor 680 anti-mouse IgG and proteins were visualized and quantified using the LI-COR Odyssey Infrared Imaging System (LI-COR). Primary antibodies applied in this study were all purchased from Cell Signaling Technology except for the MEF2C antibody, which was from Sigma.

CC(C)=CCC[C@](C)(O[C@@H]1O[C@H](CO)[C@@H](O)[C@H](O)[C@H]1O)[C@H]1CC[C@]2(C)[C@@H]1[C@H](O)C[C@@H]1[C@@]3(C)CC[C@H](O[C@@H]4O[C@H](CO)[C@@H](O)[C@H](O)[C@H]4O[C@@H]4O[C@H](CO)[C@@H](O)[C@H](O)[C@H]4O)C(C)(C)[C@@H]3CC[C@]12C [ginsenoside Rd]
susceptibility of TA muscles to fatigue (repeated maximal isometric contractions) ([1]; compared to mdx TA muscles): less susceptible to fatigue; also recorded: increased their resistance to fatigue
maximal isometric force generated by tibialis anterior (TA) ([1]; compared with sham control): no significant difference
improvement of endurance on treadmill running [2]: no effect
levels of p21 [3]: Increased levels of p21
ERK1/2 activation (p-ERK 1/2) [4]: activated
